{"source": "patent US20250270170A1", "about": "“2,3-DIMETHOXY-5-METHYL-1,4-BENZOQUINONE ALKYL ALCOHOL DERIVATIVE AND USE THEREOF” (BEIJING ANJIANXI BIO-MEDICAL TECHNOLOGY CO., LTD., priority 2021, published 2025)", "key": {"[1]": {"test": "Example 5: acute toxicity, single gavage administration", "type": "in vivo, ICR mice", "conditions": "both sexes, mouse, in vivo, po, ICR mice, single gavage administration", "protocol": "(§1) Preparation of the administration formulation of the test sample: A mixture of the compound of formula (I) and ethanol/ethyl acetate (v/v, 1/3) with a ratio of 1:1.5 was dissolved by sonication at room temperature. 2.25 equivalents of compound of formula (I) of PVP were added, and the mixture was stirred vigorously at room temperature for 20 minutes. Then, 2 equivalents of the compound of formula (I) of lactose were added, and the mixture was stirred vigorously at room temperature for 20 minutes. The mixture was dried in an oven at 50° C. and then pulverized to give a yellow powder formulation of the compound of formula (I). Then, an appropriate amount of the formulation of compound of formula (I) was weighed, and an appropriate volume of 0.5% CMC-Na aqueous solution was added. The mixture was vortexed and sonicated to mix evenly (if necessary, shear emulsification may be performed), to give an administration formulation of the test sample. The administration formulation was prepared twice a week, and 3 or 4 days of dosage was prepared each time, which was divided and stored in a 0-8° C. refrigerator for later use. When the test sample was used, a final volume mark was marked on a container, and a required amount of the test sample was weighed (weighing weight of the test sample=theoretical dosage*conversion factor) into a clean and dry container. An appropriate amount of solvent was firstly added, and the mixture was stirred and mixed thoroughly, and sonicated if necessary. The solvent was further added to the final volume mark to dilute and mix evenly, to give a visually uniform formulation. […] The administration formulation of the test sample was stable within 24 hours when being stored airtightly at room temperature in dark, and was stable within 8 days when being stored airtightly at 2° C. to 8° C. in dark.\n(§2) • Species: ICR mice • Grade: SPF grade\n(§3) Number and gender of the animals being used: 40, half male and half female;\n(§4) Body weight: The body weight of the female group was from 25.9 to 29.7 g; the body weight of the male group was from 27.7 to 30.8 g;\n(§5) Age at the time of administration: 38 to 44 days (female), 31 to 44 days (male)\n(§6) Route of Administration: Gavage Administration\n(§7) Administration frequency: once/day\n(§8) Administration period: 1 day\n(§9) The dosage was calculated based on the body weight of the animals weighed on D1 after fasting (with water access) overnight. The feed was given approximately 2 hours after drug administration.\n(§10) The administration formulation in each group was stirred at room temperature for at least 10 minutes, and suspended uniformly with visual inspection before the administration. The administration formulation was required to be continually stirred during the administration.\n(§11) Observation indicators: observation of general physical signs, body weight, food intake, animal anatomy and histopathological examination were included."}, "ICR mice": {"system": "ICR mice", "test": "Example 5: acute toxicity, single gavage administration", "type": "in vivo", "protocol": "as §1, §2, §3, §4, §5, §6, §7, §8, §9, §10, §11"}, "[2]": {"test": "Example 9: body weight of A549 tumor-bearing nude mice", "type": "in vivo", "protocol": "On D1 of the assay, the A549 cells in the logarithmic growth phase were collected, counted and resuspended in PBS, and the cell concentration was adjusted to 8×10^7 cells/mL. The cells were pipetted with a pipette to disperse them evenly, and the cells were put into a 50-mL centrifuge tube, which was placed in an ice box. A 1-mL syringe was used to draw the cell suspension, which was injected subcutaneously into the axilla of the front right limb of a nude mouse. Each animal was inoculated with 100 μL (8×10^6 cells/mouse) to establish an A549 transplanted tumor model in nude mice. After the inoculation, the animal status and tumor growth were regularly observed. On D18, the tumor diameter was measured using an electronic vernier caliper. The data were input into an Excel spreadsheet to calculate the tumor volume. Tumor-bearing mice in good health and with similar tumor volumes (101 to 156 mm^3) were selected and divided into groups using randomized block method. After the start of the assay, the tumor diameter was measured regularly, the tumor volume was calculated, and the animal body weight was also weighed and recorded. [table]"}, "[3]": {"conditions": "D21, DDP 5/7/7/7 mg/kg i.p. QW×4"}, "[4]": {"conditions": "D25, DDP 5/7/7/7 mg/kg i.p. QW×4"}, "[5]": {"conditions": "D28, DDP 5/7/7/7 mg/kg i.p. QW×4"}, "[6]": {"conditions": "D32, DDP 5/7/7/7 mg/kg i.p. QW×4"}, "[7]": {"conditions": "D35, DDP 5/7/7/7 mg/kg i.p. QW×4"}, "[8]": {"conditions": "D39, DDP 5/7/7/7 mg/kg i.p. QW×4"}, "[9]": {"conditions": "D42, DDP 5/7/7/7 mg/kg i.p. QW×4"}, "[10]": {"conditions": "D46, DDP 5/7/7/7 mg/kg i.p. QW×4"}}}
{"compound": "COC1=C(OC)C(=O)C(CCCCCCCCCCOC(=O)Cc2c(C)n(C(=O)c3ccc(Cl)cc3)c3ccc(OC)cc23)=C(C)C1=O", "note": "[compound of formula (I)]", "values": [{"measurement": "LD50 at 1 day", "setting": "[1]", "result": "> 3000", "unit": "mg/kg"}, {"measurement": "MTD at 1 day", "setting": "[1]; read-out: maximum tolerated dose (MTD)", "result": 300, "unit": "mg/kg/day"}, {"measurement": "clinical observation (general physical signs)", "setting": "ICR mice; 300 mg/kg/d single gavage", "result": "no obvious abnormal symptoms"}, {"measurement": "clinical observation (general physical signs)", "setting": "ICR mice; 1000 mg/kg/d single gavage, animals other than the dead one", "result": "No obvious abnormal symptoms"}, {"measurement": "body weight of male animals", "setting": "ICR mice; 3000 mg/kg/d single gavage, D3, vs vehicle control (P<0.05)", "result": "significant decrease"}, {"measurement": "clinical observation (general physical signs)", "setting": "ICR mice; 3000 mg/kg/d single gavage, return to normal on D8", "result": "piloerection symptoms from D2 to D7"}, {"measurement": "food intake", "setting": "ICR mice; each dosage group (300, 1000, 3000 mg/kg/d) vs vehicle control", "result": "basically consistent"}, {"measurement": "gross anatomy examination", "setting": "ICR mice; each group, naked eye observation of organs and tissues", "result": "No obvious abnormalities"}]}
{"compound": "N.N.[Cl][Pt][Cl]", "note": "[DDP, cisplatin]", "values": [{"measurement": "Mean animal body weight", "setting": "[2]; D18, DDP 4 mg/kg i.p. QW×4", "result": "18.4 ± 0.4", "unit": "g"}, {"measurement": "Mean animal body weight", "setting": "[2]; D18, DDP 5/7/7/7 mg/kg i.p. QW×4", "result": "18.5 ± 0.3", "unit": "g"}, {"measurement": "Mean animal body weight", "setting": "[2]; D21, DDP 4 mg/kg i.p. QW×4", "result": "18.3 ± 0.5", "unit": "g"}, {"measurement": "body weight loss rate", "setting": "[2]; D21, DDP 4 mg/kg i.p. QW×4", "result": "(0.81%)"}, {"measurement": "Mean animal body weight", "setting": "[2]; [3]", "result": "18.4 ± 0.3", "unit": "g"}, {"measurement": "body weight loss rate", "setting": "[2]; [3]", "result": "(0.61%)"}, {"measurement": "Mean animal body weight", "setting": "[2]; D25, DDP 4 mg/kg i.p. QW×4", "result": "18.1 ± 0.3", "unit": "g"}, {"measurement": "body weight loss rate", "setting": "[2]; D25, DDP 4 mg/kg i.p. QW×4", "result": "(1.7%)"}, {"measurement": "Mean animal body weight", "setting": "[2]; [4]", "result": "18.5 ± 0.3", "unit": "g"}, {"measurement": "body weight loss rate", "setting": "[2]; [4]", "result": "(0.00%)"}, {"measurement": "Mean animal body weight", "setting": "[2]; D28, DDP 4 mg/kg i.p. QW×4", "result": "18.5 ± 0.3", "unit": "g"}, {"measurement": "body weight loss rate", "setting": "[2]; D28, DDP 4 mg/kg i.p. QW×4", "result": "(−0.14%)"}, {"measurement": "Mean animal body weight", "setting": "[2]; [5]", "result": "18.9 ± 0.3", "unit": "g"}, {"measurement": "body weight loss rate", "setting": "[2]; [5]", "result": "(−2.4%)"}, {"measurement": "Mean animal body weight", "setting": "[2]; D32, DDP 4 mg/kg i.p. QW×4", "result": "18.7 ± 0.3", "unit": "g"}, {"measurement": "body weight loss rate", "setting": "[2]; D32, DDP 4 mg/kg i.p. QW×4", "result": "(−1.4%)"}, {"measurement": "Mean animal body weight", "setting": "[2]; [6]", "result": "18.3 ± 0.4", "unit": "g"}, {"measurement": "body weight loss rate", "setting": "[2]; [6]", "result": "(1.3%)"}, {"measurement": "Mean animal body weight", "setting": "[2]; D35, DDP 4 mg/kg i.p. QW×4", "result": "19.3 ± 0.3", "unit": "g"}, {"measurement": "body weight loss rate", "setting": "[2]; D35, DDP 4 mg/kg i.p. QW×4", "result": "(−4.9%)"}, {"measurement": "Mean animal body weight", "setting": "[2]; [7]", "result": "19.2 ± 0.4", "unit": "g"}, {"measurement": "body weight loss rate", "setting": "[2]; [7]", "result": "(−4.0%)"}, {"measurement": "Mean animal body weight", "setting": "[2]; D39, DDP 4 mg/kg i.p. QW×4", "result": "19.3 ± 0.3", "unit": "g"}, {"measurement": "body weight loss rate", "setting": "[2]; D39, DDP 4 mg/kg i.p. QW×4", "result": "(−4.6%)"}, {"measurement": "Mean animal body weight", "setting": "[2]; [8]", "result": "18.0 ± 0.3", "unit": "g"}, {"measurement": "body weight loss rate", "setting": "[2]; [8]", "result": "(2.5%)"}, {"measurement": "Mean animal body weight", "setting": "[2]; D42, DDP 4 mg/kg i.p. QW×4", "result": "19.8 ± 0.5", "unit": "g"}, {"measurement": "body weight loss rate", "setting": "[2]; D42, DDP 4 mg/kg i.p. QW×4", "result": "(−7.7%)"}, {"measurement": "Mean animal body weight", "setting": "[2]; [9]", "result": "18.8 ± 0.4", "unit": "g"}, {"measurement": "body weight loss rate", "setting": "[2]; [9]", "result": "(−1.5%)"}, {"measurement": "Mean animal body weight", "setting": "[2]; D46, DDP 4 mg/kg i.p. QW×4", "result": "19.5 ± 0.5", "unit": "g"}, {"measurement": "body weight loss rate", "setting": "[2]; D46, DDP 4 mg/kg i.p. QW×4", "result": "(−5.6%)"}, {"measurement": "Mean animal body weight", "setting": "[2]; [10]", "result": "17.1 ± 0.5", "unit": "g"}, {"measurement": "body weight loss rate", "setting": "[2]; [10]", "result": "(7.4%)"}]}
